We go through one sequence from patent publication US20090305994A1, “Compounds Modulating Vegf Receptor and Uses Thereof” (priority 2005, published 2009).

One assay relates to WKY rats. The assay can be described thus: Implanted Matrigel model in rats. The format is in vivo, rat. Conditions: subcutaneous plug, one week. As to the method:
Implanted Matrigel Model in rats. Each animals was subcutaneously injected with 1 mL Matrigel Matrix High (18-22 mg/mL; Becton Dickinson, Franklin Lakes, N.J.) containing QK, VEGF 15, VEGF 165 (10^-6 M) or saline solution on the back. One week later, Matrigel plugs were removed and fixed in 4% buffered formaldehyde in PBS for histologic analysis using Masson trichrome staining. The capillary-occupied area per field of view from 15 to 20 fields in tissue sections was measured using a computerized digital camera system (Olympus, Melville, N.Y.) and NIH Image 1.61 (NIH, Bethesda, Md.).
We evaluated the proangiogenic effects of QK in vivo using a subcutaneous injection of Matrigel Matrix High (BD Technologies) […] (VEGF 15 10^-7 M), in anesthetized twelve-week-old WKY rats. After one week the plugs were removed and analyzed in gross morphology and capillaries infiltration by CD31/vWF immunostaining. […] After 14 days animals were anesthetized and hindlimbs blood flow (BF) assessed by digital angiographies counting the TIMI Frame score (TFC) needs to the contrast to arrive at the artery dorsal paw (FIG. 5a). BF was also evaluated by dyed beads dilution through injection in abdominal aorta of yellow beads ([…]) (FIG. 5b). By histology on the ischemic and non ischemic anterior tibial muscle, we evaluated capillary density.

The target in the next assay is T1, KDR (Bos taurus, UniProt A0AAA9SPC9).
T1 construct: we immunoprecipitated total KDR and Flt-1 from BAEC whole extracts; endogenous in cells; host or cells: BAEC (bovine aorta endothelial cells, SV40-immortalized)
The assay can be described thus: KDR activation (immunoprecipitation, phospho-tyrosine western blot) in BAEC. The format is cell-based, bovine. Conditions: 15 minutes of exposure. The protocol: VEGF receptors binding and activation. a) VEGF competitive binding on BAEC. 1 μg of membrane protein was plated with QK and [^125I]-VEGF (500000 cpm, 10^−10 M). b) KDR activation. After stimulation total KDR was immunoprecipitated from a whole-cell protein extracts and phospho-tyrosine was visualized by a specific antibody, anti-rabbit HRP-conjugated secondary antibody and standard chemiluminescence. c) Flt-1 activation. After stimulation total Flt-1 was immunoprecipitated from a whole-cell protein extracts and phospho-tyrosine was visualized by specific antibody, anti-rabbit HRP-conjugated secondary antibody and standard chemiluminescence.
Western blot. Cells were plated on six-well dishes and serum starved overnight. On the next day, cells were treated with different amount of peptide in absence or in presence of VEGF165 for 15 minutes at 37° C. and then dissolved in RIPA-SDS buffer (50 mM Tris-HCl (pH 7.5), 150 mM NaCl, 1% NP-40, 0.25% deoxycholate, 9.4 mg/50 ml sodium orthovanadate, […]). In some experiments, total KDR and Flt-1 were immunoprecipitated from an equal amount of whole-cell protein extracts using protein A/G agarose beads conjugated with antibodies raised against total KDR or Flt-1 (R&D). Proteins from whole-cell extracts or immunocomplexes were resolved by PAGE and transferred to nitrocellulose. […]
(In general: A western blot detects proteins with antibodies after separation by electrophoresis.)

Another assay relates to HUVEC. The assay can be described thus: Analysis of caspase 3 activity in HUVEC deprived of FBS. The format is cell-based, human. As to conditions: 4 h. As to the method: HUVE cells (1×10^4/cm2) were incubated in medium without FBS, in the absence or presence of VEGF (20 ng/ml) and QK (5 ng/ml), at 37° C. in a 5% CO2 atmosphere. After 4 h, caspase 3 activity was determined. Results are expressed as mean values of triplicates.
HUVE cells (1×10^4/cm2) were incubated in medium without FBS, in the absence or presence of VEGF (20 ng/ml) and the indicated peptides (20 ng/ml), at 37° C. in a 5% CO2 atmosphere. After 4 h, caspase 3 activity was determined. Results are expressed as mean values of triplicates.
(§1) Analysis of caspase 3 activity—Cells (2×104) were lysed in a buffer containing Hepes 50 mM, DTT 1 mM, EDTA 0.1 mM, NP-40 0.1%, CHAPS 0.1% and protein quantitation determined. Protein aliquots (20 μg) were incubated with 20 μM Ac-DEVD-AMC (Pharmingen, San Diego, Calif.) in a buffer containing Hepes 50 mM, DTT 1 mM, EDTA 0.1 mM, NP-40 0.1%, CHAPS 0.1%, at 37° C. for 3 h. Caspase 3 activity was determined in the cytosolic extracts by analysing the release of 7-amino-4-methylcoumarin (AMC) from N-acetyl-DEVD-AMC (Thornberry N A, et al. Nature 1992; 356:768-74); the release of AMC was monitored in a spectrofluorometer with an excitation wavelength of 380 nm and emission wavelength of 440 nm.
as §1, with “356: 768-74);” for “356:768-74);”

T1 sequence (A0AAA9SPC9 20-1356): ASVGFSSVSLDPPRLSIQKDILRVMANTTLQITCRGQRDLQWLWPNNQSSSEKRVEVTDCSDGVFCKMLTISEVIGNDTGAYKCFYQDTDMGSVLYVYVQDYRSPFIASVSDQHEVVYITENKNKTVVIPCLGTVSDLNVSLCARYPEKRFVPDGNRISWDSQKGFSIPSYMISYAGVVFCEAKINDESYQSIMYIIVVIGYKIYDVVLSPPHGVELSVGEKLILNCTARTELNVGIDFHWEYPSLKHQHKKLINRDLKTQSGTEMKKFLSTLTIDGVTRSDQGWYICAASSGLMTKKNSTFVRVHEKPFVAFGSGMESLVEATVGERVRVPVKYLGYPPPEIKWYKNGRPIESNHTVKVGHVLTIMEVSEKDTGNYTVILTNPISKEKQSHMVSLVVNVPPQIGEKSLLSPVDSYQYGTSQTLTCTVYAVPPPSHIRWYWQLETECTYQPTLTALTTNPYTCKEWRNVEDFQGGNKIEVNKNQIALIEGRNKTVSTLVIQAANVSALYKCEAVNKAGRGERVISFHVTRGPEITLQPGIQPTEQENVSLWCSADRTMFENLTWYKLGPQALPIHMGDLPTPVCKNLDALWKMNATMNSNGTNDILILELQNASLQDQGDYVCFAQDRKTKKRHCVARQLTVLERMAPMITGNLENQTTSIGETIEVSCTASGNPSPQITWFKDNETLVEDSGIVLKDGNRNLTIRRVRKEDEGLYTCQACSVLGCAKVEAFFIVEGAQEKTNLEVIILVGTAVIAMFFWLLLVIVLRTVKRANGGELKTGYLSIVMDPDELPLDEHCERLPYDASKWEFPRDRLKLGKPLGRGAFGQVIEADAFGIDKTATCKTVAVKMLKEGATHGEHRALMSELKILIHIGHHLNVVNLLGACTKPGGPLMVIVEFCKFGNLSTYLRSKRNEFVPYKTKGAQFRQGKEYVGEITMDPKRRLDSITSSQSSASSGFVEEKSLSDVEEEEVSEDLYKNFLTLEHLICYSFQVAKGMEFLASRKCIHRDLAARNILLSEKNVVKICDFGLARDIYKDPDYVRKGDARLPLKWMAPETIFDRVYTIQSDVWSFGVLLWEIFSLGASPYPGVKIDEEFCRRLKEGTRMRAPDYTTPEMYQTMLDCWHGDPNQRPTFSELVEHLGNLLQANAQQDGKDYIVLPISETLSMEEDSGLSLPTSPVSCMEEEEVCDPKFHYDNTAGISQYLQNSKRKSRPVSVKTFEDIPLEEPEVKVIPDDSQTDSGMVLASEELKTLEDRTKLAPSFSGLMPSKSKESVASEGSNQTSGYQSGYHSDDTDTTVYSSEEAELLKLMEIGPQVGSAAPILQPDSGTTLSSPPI

As for KLTWQELYQLKYKGI [QK], the “Matrigel plug gross morphology (macroscopic inspection)” value with WKY rats is given as “contained blood”. For the same sequence, the “peripheral capillaries infiltration of Matrigel plugs” value with WKY rats (versus VEGF 15 plugs) is “greater peripheral capillaries infiltration”. Further, on KDR, the phospho-KDR levels result is recorded as “reduced phospho-KDR below the levels in unstimulated cells”. Also, the “rescue from apoptosis in presence of VEGF (caspase 3)” value in the assay with HUVEC (QK 5 ng/ml with VEGF 20 ng/ml) is reported as “enhanced the response of HUVEC to VEGF”. For the same sequence, the “rescue of HUVEC from apoptosis (caspase 3 activation)” value with HUVEC (VEGF 20 ng/ml, QK 5 ng/ml) is recorded as “showed a biological effect similar to VEGF”.
